Here are results for five molecules from US20030008273A1, “Methods for increasing the survival of neuronal cells” (priority 2001, published 2003).

Structures are written as SMILES. “Also recorded” adds a separate entry of the source.

Test [1] has as its system primary ventral mesencephalic cultures. As to the kind of experiment: Primary ventral mesencephalic cultures, count of NeuN-positive cells. Type of test: cell-based, rat. The protocol:
(§1) Ventral midbrain, cortex and hippocampus from rat embryos at stage E14.5-15.5 were dissected, mechanically dissociated and plated on poly-D-lysine coated 12 or 24 well plates in serum free media (N2, consisting of a 1:1 mixture of MEM (+15 mM HEPES buffer) and Ham's F12 medium (+6 mg/ml glucose, 1 mg/ml bovine serum albumin, 5 ug/ml insulin, 100 ug/ml transferrin, 60 μM putrescine, 20 nM progesterone, 30 nM selenium and 1 mM glutamine). Ligands (all-trans RA, 9-cis retinoic acid, LG268, docosahexanoic acid (DHA), SR11237, TTNPB, and LB1208; stock solutions in DMSO) were diluted to working concentrations in N2, added to cells and incubated 3-5 days. GDNF was dissolved in phosphate-buffered saline (PBS) containing 1 mg/ml bovine serum albumin. These experiments were conducted in triplicate. Paraformaldehyde fixed cultures were then incubated over night with anti-tyrosine hydroxylase (TH) (1:1000, Pel-Freez), anti-NeuN (1:200, Chemicon) or anti-Nurr1 (1: 10,000, Santa Cruz) antibodies in PBS containing 0.5% (TH and NeuN) or 10% (Nurr1) fetal calf serum and 0.3% triton X100. Following rinses, cultures were incubated with biotinylated secondary antibody followed by detection of immuno-staining using the ABC immunoperoxidase kit from Vector. Cells were counted using brightfield microscopy (Nikon Eclipse EM 300). […]

Another test relates to Nurr1+/+ cortical cells. The test is described as follows: Primary cortical cultures from wild-type (Nurr1+/+) mice, NeuN count. Type of test: cell-based, mouse. Conditions: 0.1 μM, three days. The method, then:
(§2) Nurr1^+/− females were mated with Nurr1^+/− males to generate embryo litters of mixed genotypes (25%^+/+, 50%^+/− and 25%^−/−) as previously described (Zetterström et al, Science 1997). Pregnant females were sacrificed and embryos at embryonic stage E15.5 were dissected. Tails were removed for genotyping. Brains were fine-dissected and meninges removed. Both cortices from each embryo were removed and placed in 500 μl culture medium (N2). When all embryos in the litter were dissected, the cortices were triturated by mechanical dissociation using a fire-polished Pasteur pipette. […] To avoid excessive cell death due to the extended dissection period when using gene targeted mice as compared to wild-type rats, 50 μl cell suspension was routinely plated. This generated cultures in the range of 200.000-470.000 cells per well. Six wells were plated per embryo; three were incubated in N2 only and three with N2+0.1 μM LG268. Cells were incubated for three days and thereafter fixed in 4% paraformaldehyde for 30 minutes and rinsed. For detection of neuronal nuclei, NeuN (diluted 1:300, Chemicon) was used in immunohistochemistry where visualization was with the ABC-kit from Vector. Cells were counted using brightfield microscopy (Eclipse E300M).

The test system of another test is Nurr1-/- cortical cells. As to the kind of experiment: Primary cortical cultures from Nurr1-knock-out (Nurr1-/-) mice, NeuN count. The test is classed as cell-based, mouse. The settings on record: 0.1 μM, three days. The protocol:
as §2

The test system of a further test is hippocampal cultures. As to the kind of experiment: Primary hippocampal cultures, count of Nurr1-positive and non-expressing cells. The test is classed as cell-based, rat. The protocol: as §1
The next test concerns cortex cultures. As to the kind of experiment: Primary cortex cultures, count of Nurr1-positive and non-expressing cells. Type of test: cell-based, rat. The protocol: as §1
Test [2] concerns primary ventral midbrain cells (dopamine secreting cells). As to the kind of experiment: Primary ventral midbrain cultures, count of TH-immunoreactive (dopamine) cells. Conditions: for number of TH-immunoreactive (IR) cells: ligand alone, increasing concentrations, 3-5 days. Type of test: cell-based, rat. The method, then: (§3) Ventral midbrains from rat embryos at stage E15.5 were dissected, mechanically dissociated, and plated on poly-D-lysine coated 12 well plates in serum-free medium (N2; consisting of a 1:1 mixture of F12 and MEM with 5 μg/ml insulin, 100 μg/ml transferrin, 60 μM putrescine, 20 nM progesterone, 30 nM selenium, 6 mg/ml glucose and 1 mg/ml bovine serum albumin).
Ventral midbrain, cortex and hippocampus from rat embryos at stage E14.5-15.5 were dissected, mechanically dissociated and plated on poly-D-lysine coated 12 or 24 well plates in serum free media (N2, consisting of a 1:1 mixture of MEM (+15 mM HEPES buffer) and Ham's F12 medium (+6 mg/ml glucose, 1 mg/ml bovine serum albumin, 5 ug/ml insulin, 100 ug/ml transferrin, 60 μM putrescine, 20 nM progesterone, 30 nM selenium and 1 mM glutamine). Ligands (all-trans RA, 9-cis retinoic acid, LG268, docosahexanoic acid (DHA), SR11237, TTNPB, and LB1208; stock solutions in DMSO) were diluted to working concentrations in N2, added to cells and incubated 3-5 days. GDNF was dissolved in phosphate-buffered saline (PBS) containing 1 mg/ml bovine serum albumin. These experiments were conducted in triplicate. Paraformaldehyde fixed cultures were then incubated over night with anti-tyrosine hydroxylase (TH) (1:1000, Pel-Freez), anti-NeuN (1:200, Chemicon) or anti-Nurr1 (1: 10,000, Santa Cruz) antibodies in PBS containing 0.5% (TH and NeuN) or 10% (Nurr1) fetal calf serum and 0.3% triton X100. Following rinses, cultures were incubated with biotinylated secondary antibody followed by detection of immuno-staining using the ABC immunoperoxidase kit from Vector. Cells were counted using brightfield microscopy (Nikon Eclipse EM 300). Cell counting was performed independently by two individuals to derive unbiased results.

In test [3] the test system is primary midbrain cultures. As to the kind of experiment: BrdU pulse labeling of primary midbrain cultures (proliferation). The test is classed as cell-based, rat. Conditions: 0.1 μM. The method, then: as §3
Bromodeoxyuridine (BrdU) was added in relevant experiments 4-6 hours before fixation. After fixation with 4% paraformaldehyde for 45 minutes, cells were rinsed in PBS. BrdU incorporation was detected by incubating cells with 2 M hydrochloric acid prior to digesting with 0.25% pepsin (Sigma). Following PBS rinses, cells were incubated in blocking solution (0.5% bovine serum albumin, 0.5% Tween-20 in PBS), and thereafter incubated with anti-BrdU antibody (Dako A/S; diluted 1:20 in blocking solution) at 4° C. overnight. Antibody-binding was detected with anti-mouse CY3-conjugated IgG (Jackson ImmunoResearch Labs Inc.). Cells were analyzed using inverted epifluorescent microscopy.

Test [4] has as its system RXR (Nurr1-RXR heterodimer). The settings on record: JEG3, MH100-tk-luc reporter.
Method: (§4) Human choriocarcinoma cells, JEG3, were transfected in triplicate in 24-well plates. […] Each well was transfected with 100 ng of the gal4-binding luciferase reporter construct, MH100-tk-luc, 100 ng of CMX-RXR (Perlmann et al. (1995) Genes and Dev. 9: 769-782), and 100 ng of either CMX-gal4-Nurr1 (Perlmann et al. (1995) Genes and Dev. 9: 769-782), or CMX-gal4-Nurr1 dim^−.
(§5) In reporter assays of conditioned media and 9-cis retinoic acid titration experiments, a CMX-gal4-RAR construct (Perlmann et al. (1995) Genes and Dev. 9: 769-782) was also used. In all experiments, CMX-βgal (200 ng) (Perlmann et al. (1995) Genes and Dev. 9, 769-782) was used as an internal control. Following transfection of JEG3 cells (6 hours post-transfection), calcium precipitate was removed by washing with fresh medium. Tissue explants or conditioned media were then added to the cells. After 24 hours, cells were harvested and assayed for luciferase and reference β-galactosidase activity on a luminometer/photometer.
Reporter experiments were performed as previously described. […] Briefly, an expression vector encoding a derivative of the orphan-nuclear receptor Nurr1 (GAL4-Nurr1), was cotransfected into JEG3 cells with an expression vector encoding RXR and a reporter expression vector containing GAL4 binding sites in operable linkage with a luciferase reporter gene. […]
A further test has as its system RAR. As to the kind of experiment: Luciferase reporter assay in JEG3 cells transfected with gal4-RAR. Type of test: cell-based. The settings on record: JEG3, MH100-tk-luc reporter.

Method for RAR: as §4, §5

Take `Cc1cc2c(cc1C1(c3ccc(C(=O)O)cn3)CC1)C(C)(C)CCC2(C)C` [LG268]: in test [1], the “number of NeuN-positive cells (entire neuronal-cell population)” value is given as “do not produce a general increase”. Also, the results for the “total number of neurons (NeuN immunoreactivity)” value in the test on Nurr1+/+ cortical cells and in the test on Nurr1-/- cortical cells were “significantly increased” and “no increase”, respectively. Further, the results for the “increase in number of Nurr1-positive cells” value in the test on hippocampal cultures and in the test with cortex cultures were 36% and 39%, respectively. For the same molecule, the “number of Nurr1 non-expressing cells” value with hippocampal cultures and in the test on cortex cultures was “did not increase” each time. In addition, the “efficiency compared to GDNF (TH-IR cells)” value in [2] (FIG. 12C, comparison of SR11237, LG268 and GDNF) is recorded as “more potent than either SR11237 or GDNF”. In addition, in test [2], the “number of TH-immunoreactive (IR) cells” value was “dose-dependent increase; also recorded: efficiently increased the number of dopamine neurons”.
For `CC1(C)CCC(C)(C)c2cc(C3(c4ccc(C(=O)O)cc4)OCCO3)ccc21` [SR11237], in test [3], the “proliferation (BrdU)” value was “not due to increased proliferation”. For the same molecule, the “number of dopamine secreting cells” value in [2] (72 hour incubation, compared to TTNPB, all-trans retinoic acid or no RXR ligand) is reported as “increased dopamine secreting cells”. The “number of TH-immunoreactive (IR) cells” value in [2] is given as “dose-dependent increase”.
With `CC/C=C\C/C=C\C/C=C\C/C=C\C/C=C\C/C=C\CCC(=O)O` [DHA, docosahexanoic acid], the “number of NeuN-positive cells (entire neuronal-cell population)” value in test [1] is “do not produce a general increase”. In test [2], the “number of TH-immunoreactive (IR) cells” value is on record as “increased the number of TH-IR cells in a dose-dependent manner; also recorded: efficiently increased the number of dopamine neurons”.
For the molecule `CC1=C(/C=C/C(C)=C\C=C\C(C)=C\C(=O)O)C(C)(C)CCC1` [9cisRA, 9-cis retinoic acid], the “activation of RXR reporter (titration)” value in test [4] was “efficient ligand”. The “activation of RAR reporter (titration)” value in the test with RAR is “efficient ligand”. Besides, the “number of TH-IR neurons when combined with RAR antagonist RO” value in [2] (increasing concentrations combined with R041-5253 (RO)) is reported as “increase with increasing concentrations”. Also, in test [2], the “number of TH-immunoreactive (IR) cells” value is on record as “does not affect the number of TH-IR cells”.
Regarding `C/C(=C\c1ccc(C(=O)O)cc1)c1ccc2c(c1)C(C)(C)CCC2(C)C` [TTNPB], the “effect on the neurotrophic effect of LG268” value in [2] (in the presence of LG268) is “blocks the neurotrophic effect”. In addition, the “number of TH-immunoreactive (IR) cells” value in test [2] was “does not increase the number of TH-IR cells”.
